These results are taken from patent publication US20070276011A1, “Plasminogen Activator Inhibitor-1 Inhibitor” (priority 2003, published 2007).

In general, IC50 refers to the point on the concentration scale where inhibition reaches its midpoint.

In one assay the target is recombinant human PAI-1 (Homo sapiens, UniProt P05121). As to the kind of experiment: PAI-1 inhibitory activity, Test Method A (tPA fluorogenic substrate, Tris buffer pH8.0, 37 C). It is filed as biochemical. The settings on record: 25 μM test compound; Test Method A.
Chain of recombinant human PAI-1 (P05121 24-402): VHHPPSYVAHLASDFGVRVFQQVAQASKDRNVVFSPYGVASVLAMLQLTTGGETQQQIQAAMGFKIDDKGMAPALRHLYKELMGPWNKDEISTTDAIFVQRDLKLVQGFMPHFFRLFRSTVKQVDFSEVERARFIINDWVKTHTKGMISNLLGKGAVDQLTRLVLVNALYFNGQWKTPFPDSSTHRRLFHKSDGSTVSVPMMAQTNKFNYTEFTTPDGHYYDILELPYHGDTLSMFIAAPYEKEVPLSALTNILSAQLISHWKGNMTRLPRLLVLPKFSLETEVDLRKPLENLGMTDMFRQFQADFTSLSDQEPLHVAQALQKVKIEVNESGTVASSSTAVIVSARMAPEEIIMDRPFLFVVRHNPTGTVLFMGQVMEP
As to `O=C(Nc1ccccc1)c1ccc(CN2C(=O)SC(=Cc3ccc(O)c(O)c3)C2=O)cc1` [compound 301, 5-(3,4-Dihydroxybenzylidene)-3-[4-(phenylcarbamoyl)benzyl]thiazolidine-2,4-dione], the “Inhibitory Ratio at 25 μM (%)” value is on record as greater than 99%.
With `O=C1SC(=Cc2ccc(O)c(O)c2)C(=O)N1Cc1ccc(Nc2ccccc2)cc1` [compound 302, 5-(3,4-Dihydroxybenzylidene)-3-[4-(phenylamino)benzyl]thiazolidine-2,4-dione], the “Inhibitory Ratio at 25 μM (%)” value is listed as greater than 99%.
On to `O=C1C(=Cc2cc(O)c(O)c(O)c2)SC(=S)N1Cc1ccc(Cl)c(Cl)c1` [compound 303], for which the “Inhibitory Ratio at 25 μM (%)” value is listed as greater than 99%.

Still in this assay, the particulars now being: 50% inhibitory concentration of PAI-1 activity, according to the aforementioned method.
As for `O=C1C(=Cc2cc(O)c(O)c(O)c2)SC(=S)N1Cc1ccc(Cl)c(Cl)c1` [compound 303], the IC50 is 390 nM.

Still in this assay, the particulars now being: test compound 25 μM; Test Method A.
Regarding `COC(=O)c1cccc(N2N=C(C(F)(F)F)C(=Cc3ccc(-c4cc(Cl)cc(Cl)c4)o3)C2=O)c1` [compound 166, 4-{[5-(3,5-Dichlorophenyl)furan-2-yl]methylene}-1-[3-(methoxycarbonyl)phenyl]-3-trifluoromethyl-2-pyrazolin-5-one], the “Inhibitory Ratio at 25 μM (%)” value is listed as greater than 99%.
On the same count and under the same terms, the same measure for `O=C1C(=Cc2ccc(-c3cc(Cl)cc(Cl)c3)o2)C(c2ccccc2)=NN1c1cccc([N+](=O)[O-])c1` [compound 167, 4-{[5-(3,5-Dichlorophenyl)furan-2-yl]methylene}-1-(3-nitrophenyl)-3-phenyl-2-pyrazolin-5-one]: 50%; for `C=CCOc1ccc(C=C2C(=O)N(c3ccc(Cl)c(C(=O)O)c3)N=C2C)cc1OC` [compound 169]: 27%; for `COc1cc(C=C2C(=O)N(c3ccc(Cl)c(C(=O)O)c3)N=C2C)ccc1OCc1ccccc1` [compound 170]: greater than 99%.
With `CC1=NN(c2cccc(C(=O)O)c2)C(=O)C1=Cc1ccccc1` [compound 172], the “Inhibitory Ratio at 25 μM (%)” value was found to be 32%.
On to `CC1=NN(c2cccc(C(=O)O)c2)C(=O)C1=Cc1cc(Br)ccc1OCc1ccccc1` [compound 173], for which the “Inhibitory Ratio at 25 μM (%)” value is on record as 66%.
Take `COc1cc(C=C2C(=O)N(c3cccc(C(=O)O)c3)N=C2C)cc(Br)c1OCC(=O)NCc1ccccc1` [compound 174]: the “Inhibitory Ratio at 25 μM (%)” value was determined as 62%.
In the case of `O=C(O)c1cccc(N2N=C(c3ccccc3)C(=Cc3ccccc3)C2=O)c1` [compound 175], the “Inhibitory Ratio at 25 μM (%)” value was 35%.
Same read-out and setting: the same measure for `O=C(O)c1cccc(N2N=C(C(F)(F)F)C(=Cc3ccc(-c4cc(Cl)cc(Cl)c4)o3)C2=O)c1` [compound 176]: 65%.
Turning to `COC(=O)c1cccc(N2N=C(C(F)(F)F)C(=Cc3ccc(-c4cc(C(F)(F)F)cc(C(F)(F)F)c4)o3)C2=O)c1` [compound 177, 4-({5-[3,5-Bis(trifluoromethyl)phenyl]furan-2-yl}methylene)-1-(3-methoxycarbonylphenyl)-3-trifluoromethyl-2-pyrazolin-5-one], the “Inhibitory Ratio at 25 μM (%)” value worked out at 86%.
On to `COC(=O)c1cccc(N2N=C(C(F)(F)F)C(=Cc3ccc(SCCN(C)C)s3)C2=O)c1` [compound 178], for which the “Inhibitory Ratio at 25 μM (%)” value turned out to be 40%.
On to `O=C(O)c1cccc(N2N=C(C(F)(F)F)C(=Cc3ccc(-c4cc(C(F)(F)F)cc(C(F)(F)F)c4)o3)C2=O)c1` [compound 179], for which the “Inhibitory Ratio at 25 μM (%)” value came to 62%.
With `COC(=O)c1cccc(N2N=C(c3ccccc3)C(=Cc3ccc(-c4cc(Cl)cc(Cl)c4)o3)C2=O)c1` [compound 180], the “Inhibitory Ratio at 25 μM (%)” value was 90%.
For `COC(=O)c1cccc(N2N=C(C(F)(F)F)C(=Cc3ccc(-c4cc(Cl)cc(Cl)c4)s3)C2=O)c1` [compound 181], the “Inhibitory Ratio at 25 μM (%)” value stood at 23%.
In the case of `O=C1C(=Cc2ccc(-c3cc(Cl)cc(Cl)c3)o2)C(C(F)(F)F)=NN1c1cccc([N+](=O)[O-])c1` [compound 182], the “Inhibitory Ratio at 25 μM (%)” value came to 90%.
In the case of `O=C(O)c1cccc(N2N=C(C(F)(F)F)C(=Cc3ccc(-c4cc(Cl)cc(Cl)c4)s3)C2=O)c1` [compound 184], the “Inhibitory Ratio at 25 μM (%)” value came to 43%.
Same read-out and setting: the same measure for `CCOC(=O)C1=NN(c2cccc(C(=O)OCC)c2)C(=O)C1=Cc1ccc(-c2cc(Cl)cc(Cl)c2)o1` [compound 185]: 89%; for `CC1=NN(c2ccc(S(N)(=O)=O)cc2)C(=O)C1=Cc1ccc(-c2cccc(Cl)c2)o1` [compound 186]: 30%.
Turning to `CC1=NN(c2cccc(C(=O)O)c2)C(=O)C1=Cc1ccc(-c2ccc(C)c(Cl)c2)o1` [compound 187], the “Inhibitory Ratio at 25 μM (%)” value came to 54%.
As to `CC1=NN(c2ccc(Cl)c(C(=O)O)c2)C(=O)C1=Cc1ccc(-c2ccccc2Cl)o1` [compound 188], the “Inhibitory Ratio at 25 μM (%)” value is given as 35%.
For the compound `COC(=O)c1cccc(-c2ccc(C=C3C(=O)N(c4cccc(C(=O)O)c4)N=C3C)o2)c1` [compound 189], the “Inhibitory Ratio at 25 μM (%)” value is 21%.
For `CC1=NN(c2ccc(Cl)c(C(=O)O)c2)C(=O)C1=Cc1ccc(-c2cccc(Cl)c2C)o1` [compound 190], the “Inhibitory Ratio at 25 μM (%)” value amounted to 81%.
On the same count and under the same terms, the same measure for `CC1=NN(c2cccc(C(=O)O)c2)C(=O)C1=Cc1ccc(-c2cc(Cl)cc(Cl)c2)o1` [compound 191]: 59%.
As for `CC1=NN(c2ccc(Cl)c(C(=O)O)c2)C(=O)C1=Cc1ccc(-c2cccc(F)c2)o1` [compound 192], the “Inhibitory Ratio at 25 μM (%)” value is recorded as 44%.
With `CC1=NN(c2cccc(C(=O)O)c2)C(=O)C1=Cc1ccc(-c2cccc([N+](=O)[O-])c2)o1` [compound 193], the “Inhibitory Ratio at 25 μM (%)” value was determined as 32%.
`COC(=O)c1cccc(N2N=C(c3ccccc3)C(=Cc3ccc(Br)o3)C2=O)c1` [compound 194]: the “Inhibitory Ratio at 25 μM (%)” value amounted to 84%.
`O=C1C(=Cc2ccc(Br)o2)C(C(F)(F)F)=NN1c1cccc([N+](=O)[O-])c1` [compound 195]: the “Inhibitory Ratio at 25 μM (%)” value is 30%.
On the same count and under the same terms, the result for `CCOC(=O)C1=NN(c2cccc(C(=O)OCC)c2)C(=O)C1=Cc1ccc2c(c1)OCO2` [compound 196] reads 54%; that for `COC(=O)c1cccc(N2N=C(C(C)(C)C)C(=Cc3ccc(Cl)c(Cl)c3)C2=O)c1` [compound 197], 32%.
On to `CC(C)(C)C1=NN(c2cccc(C(=O)O)c2)C(=O)C1=Cc1ccc(Cl)c(Cl)c1` [compound 198], for which the “Inhibitory Ratio at 25 μM (%)” value is 40%.
Turning to `O=C1C(=Cc2ccc(Br)o2)C(c2ccccc2)=NN1c1cccc([N+](=O)[O-])c1` [compound 199], the “Inhibitory Ratio at 25 μM (%)” value was determined as 85%.
Consider `CC(C)C1=NN(c2cccc([N+](=O)[O-])c2)C(=O)C1=Cc1ccc(Br)o1` [compound 200, 4-[(5-Bromofuran-2-yl)methylene]-1-(3-nitrophenyl)-3-isopropyl-2-pyrazolin-5-one], for which the “Inhibitory Ratio at 25 μM (%)” value stood at 53%.
On to `O=C1C(=Cc2ccc(Cl)c(Cl)c2)C(c2ccccc2)=NN1c1cccc([N+](=O)[O-])c1` [compound 201], for which the “Inhibitory Ratio at 25 μM (%)” value is reported as greater than 99%.
Same read-out and setting: the same measure for `COC(=O)c1cccc(C=C2C(=O)N(c3cc(Cl)cc(Cl)c3)N=C2C(C)C)c1` [compound 204, 4-[3-(methoxycarbonyl)benzylidene]-1-(3,5-dichlorophenyl)-3-isopropyl-2-pyrazolin-5-one]: greater than 99%.
On to `COC(=O)c1cccc(N2N=C(C(C)C)C(=Cc3ccc(Br)o3)C2=O)c1` [compound 205], for which the “Inhibitory Ratio at 25 μM (%)” value was 35%.
On to `CC(C)C1=NN(c2cc(Cl)cc(Cl)c2)C(=O)C1=Cc1ccc(Cl)c([N+](=O)[O-])c1` [compound 206], for which the “Inhibitory Ratio at 25 μM (%)” value is given as 94%.
Same read-out and setting: the result for `CC(C)C1=NN(c2cc(Cl)cc(Cl)c2)C(=O)C1=Cc1ccc(Br)cc1` [compound 207] reads 46%.
Still for that read-out and setting: the result for `COC(=O)c1cccc(N2N=C(C(C)C)C(=Cc3ccc4c(c3)OCO4)C2=O)c1` [compound 208] reads 47%; that for `COC(=O)c1cccc(N2N=C(C(C)C)C(=Cc3ccc(Cl)c(Cl)c3)C2=O)c1` [compound 210], 49%.
As for `CC(C)C1=NN(c2cccc(C(=O)O)c2)C(=O)C1=Cc1ccc(-c2cc(Cl)cc(Cl)c2)o1` [compound 211], the “Inhibitory Ratio at 25 μM (%)” value came out at 31%.
The same measure, in the same setting: the result for `CC(C)C1=NN(c2cc(Cl)cc(Cl)c2)C(=O)C1=Cc1cccc(C(=O)O)c1` [compound 212] reads 82%; that for `CCOC1=NN(c2ccc([N+](=O)[O-])cc2)C(=O)C1=Cc1ccc(C)c(OC)c1` [compound 213], 40%; that for `CCOC1=NN(c2ccc([N+](=O)[O-])cc2)C(=O)C1=Cc1ccc(C(=O)OC)cc1` [compound 214], 29%.
`O=C(O)c1cccc(N2N=C(c3ccccc3)C(=Cc3ccc(Br)o3)C2=O)c1` [compound 215]: the “Inhibitory Ratio at 25 μM (%)” value is recorded as 77%.
On to `O=C(O)c1cccc(N2N=C(c3ccccc3)C(=Cc3ccc(-c4cc(Cl)cc(Cl)c4)o3)C2=O)c1` [compound 216], for which the “Inhibitory Ratio at 25 μM (%)” value was 94%.
`O=C(O)c1cccc(N2N=C(c3ccccc3)C(=Cc3ccc(-c4cc(C(F)(F)F)cc(C(F)(F)F)c4)o3)C2=O)c1` [compound 217]: the “Inhibitory Ratio at 25 μM (%)” value is greater than 99%.
For `O=C(O)c1cccc(N2N=C(C(F)(F)F)C(=Cc3ccc(-c4cc(Cl)cc(Cl)c4)o3)C2=O)c1` [compound 218], the “Inhibitory Ratio at 25 μM (%)” value amounted to 95%.
As for `O=C(O)c1ccc(Cl)c(-c2ccc(C=C3C(=O)N(c4cccc(C(F)(F)F)c4)N=C3O)o2)c1` [compound 220], the “Inhibitory Ratio at 25 μM (%)” value is reported as greater than 99%.
On to `O=C1C(=Cc2ccc(O)c(O)c2)C(c2ccccc2)=NN1c1ccc(Cl)c(Cl)c1` [compound 221], for which the “Inhibitory Ratio at 25 μM (%)” value was greater than 99%.
In the case of `CC(C)C1=NN(c2ccc(Cl)nc2)C(=O)C1=Cc1cc(O)c(O)cc1O` [compound 222, 4-(2,4,5-Trihydroxybenzylidene)-1-(2-chloropyridin-5-yl)-3-isopropyl-2-pyrazolin-5-one], the “Inhibitory Ratio at 25 μM (%)” value worked out at 79%.
For `CCOC1=NN(c2ccc([N+](=O)[O-])cc2)C(=O)C1=Cc1cc(O)c(O)cc1O` [compound 223], the “Inhibitory Ratio at 25 μM (%)” value is listed as 88%.
Still for that read-out and setting: the same measure for `CC1=NN(c2ccc(Cl)cc2)C(=O)C1=Cc1cc(O)c(O)cc1O` [compound 224]: 69%.
